Reference: US10882837B2, “Amide compounds and use thereof” (ALPHALA CO., LTD., priority 2017, dated 2021)

Assays:
[1] = molecular target: T1, glucagon receptor (GCGR) (Homo sapiens, UniProt P47871); assay: Glucagon cAMP inhibition assay (Cisbio cAMP Dynamic 2 HTRF); format: cell-based; details: GCGR overexpressed CHO-K1 cells or human primary hepatocytes (not specified); glucagon at EC50
T1 construct: expressed in transfected cells; host or cells: CHO-K1
Procedure, shortened: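 GCGR-overexpressing CHO-K1 cells or human primary hepatocytes in HBSS with 0.1% BSA and 800 nM IBMX, pre-incubated 30 min with compound (1% DMSO final), then stimulated 30 min at room temperature with glucagon at its EC50. cAMP measured by HTRF after 60 min lysis; IC50 from non-linear regression.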

[2] = molecular target: T2, GCGR (Homo sapiens, UniProt P47871); assay: I125-glucagon binding assay (competition, GCGR membrane fractions); set-up: expressed in transfected cells; host or cells: CHO-K1; details: competition with I125-glucagon 0.0625 nM; membrane fractions from GCGR overexpressed CHO-K1 cells
Procedure, shortened: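 Membranes from CHO-K1 cells overexpressing GCGR (7.5 µg/well) were preincubated 5 min with serially diluted compound in 50 mM Tris pH 7.4, 0.5% BSA. I125-glucagon was then added at 0.0625 nM final and incubated 30 min at 25 °C. After filtration, bound radioactivity was counted and IC50 derived by non-linear regression.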
Target sequence in this assay (P47871 26-477, species assumed): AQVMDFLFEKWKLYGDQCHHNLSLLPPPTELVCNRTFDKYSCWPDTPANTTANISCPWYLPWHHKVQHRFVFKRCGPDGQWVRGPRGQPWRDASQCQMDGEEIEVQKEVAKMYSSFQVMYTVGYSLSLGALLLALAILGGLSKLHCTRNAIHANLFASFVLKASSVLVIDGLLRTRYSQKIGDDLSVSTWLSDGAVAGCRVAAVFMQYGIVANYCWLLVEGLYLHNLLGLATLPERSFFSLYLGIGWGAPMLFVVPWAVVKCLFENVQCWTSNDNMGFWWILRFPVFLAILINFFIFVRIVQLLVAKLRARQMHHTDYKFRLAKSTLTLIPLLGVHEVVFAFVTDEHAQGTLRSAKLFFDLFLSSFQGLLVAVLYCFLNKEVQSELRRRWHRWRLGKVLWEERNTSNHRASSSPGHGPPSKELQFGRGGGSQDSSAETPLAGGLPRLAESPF

[3] = molecular target: T2, GCGR; assay: HTRF cAMP assay in primary human hepatocytes stimulated with recombinant glucagon; format: cell-based; set-up: endogenous in cells; host or cells: primary human hepatocytes
Procedure: Downstream secondary messenger eAMP induced by glucagon was detected by Cisbio cAMP Dynamic 2 kit. Testing compounds were each prepared as a dimethyl sulfoxide (DMSO) solution at the concentration of 10 mM. To evaluate the potency of compounds in inhibiting the cAMP production, glucagon receptor (GCGR) overexpressed CHO-K1 cells or human primary hepatocytes were treated with compounds with a serial dilution. The cells were re-suspended in Hank's Balanced Salt solution (HBSS) contained 0.1% (w/v) bovine serum albumin and 800 nM 3-isobutyl-1-methylxanthine (IBMX) and seeded into low volume, 384 wells white plate. The diluted compounds were then added into the plate for 30 minutes pre-incubation where the final DMSO concentration was 1%. The cells were stimulated with glucagon at the concentration equaled to EC50 (an indicium of the concentration of a drag that gives half-maximal response) for 30 minutes at room temperature. After incubation, lysis buffer contain cAMP antibody and fluorescence acceptor were added into each well for additional 60 minutes incubation.
The HTRF cAMP assay was performed by following the manufacturer guidance. Primary human hepatocytes, pre-incubated with tested compounds at various concentrations, were stimulated with recombinant glucagon and the IC50 values were determined by the non-linear regression based on the amount of cAMP production.
Target sequence in this assay (P47871 26-477): as the sequence (P47871 26-477, species assumed) above

T1 sequence (P47871 26-477, species assumed): as above

Row | IC50 [1] | IC50 [2] | IC50 [3] | Structure (SMILES)
1 | 2050 nM | 92 nM | 19 nM | CCC(C)[C@H](Nc1ccc(C(=O)NCCC(=O)O)cc1)c1ccc(-c2nnc(-c3ccccc3)o2)cc1 (stereo partly drawn) [Compound 1-49, 3-(4-(((1S)-2-methyl-1-(4-(5-phenyl-1,3,4-oxadiazol-2-yl)phenyl)butyl)amino)benzamido)propanoic acid]
2 | 473 nM | 49 nM | 15 nM | CCC(C)[C@H](Nc1ccc(C(=O)NCCC(=O)O)cc1)c1ccc(-c2noc(-c3ccccc3)n2)cc1 (stereo partly drawn) [Compound 2-19, 3-(4-(((1S)-2-methyl-1-(4-(5-phenyl-1,2,4-oxadiazol-3-yl)phenyl)butyl)amino)benzamido)propanoic acid]
3 | 2690 nM | 47.7 nM | 62 nM | CC(C)[C@H](Nc1ccc(C(=O)NCCC(=O)O)cn1)c1ccc(-c2nc3ccccc3s2)cc1 [Compound 4-28, (S)-3-(6-((1-(4-(benzo[d]thiazol-2-yl)phenyl)-2-methylpropyl)amino)nicotinamido)propanoic acid]
4 | 2380 nM | 41.8 nM | 53 nM | CC(C)[C@H](Nc1ccc(C(=O)NCCC(=O)O)cn1)c1ccc(-c2nc3ccccc3o2)cc1 [Compound 4-30, (S)-3-(6-((1-(4-(benzo[d]oxazol-2-yl)phenyl)-2-methylpropyl)amino)nicotinamido)propanoic acid]
